“Also recorded” adds a separate entry of the source. Where two headings read alike, the source gives them in different places.

The values that follow come from US20260035411A1, “CRYSTALLINE FORMS OF A PCSK9 INHIBITOR, COMPOSITIONS AND USES” (MERCK SHARP & DOHME LLC, priority 2022, published 2026).

Series [1] is described as follows: Adsorption/desorption cycles under relative humidity (weight increase, hygroscopicity).
A short description of series [2]: XRPD analysis before and after adsorption/desorption cycles (physical stability, crystallinity). The class given is physicochemical. The procedure:
X-ray powder diffraction studies are widely used to characterize molecular structures, crystallinity, and polymorphism. The X-ray powder diffraction patterns disclosed herein were generated on a Philips Analytical X′Pert PRO X-ray Diffraction System with PW3040/60 console. A PW3373/00 ceramic Cu LEF X-ray tube K-Alpha radiation was used as the source.
In addition, the chloride salt requires −20° C. storage to minimize chemical degradation while the acetate and caprate salts are less prone to degradation at higher temperatures. […] The stability of crystalline forms of the compounds of Formula I were characterized by XRPD under relative humidity conditions that simulate potential storage conditions.

With `COc1ccc(C[C@@H]2NC(=O)[C@H]([C@@H](C)O)NC(=O)[C@@H]3[C@@H]4CCN3C(=O)[C@@H]3Cc5cn(c6ccc(F)cc56)CCCCCCN(Cc5ccc(cc5)CCNC(=O)[C@]5(C)CCCN5C2=O)C(=O)CCC(=O)N[C@@H](C)C(=O)N[C@H](CNC(=O)CCCCC[N+](C)(C)C)C(=O)N[C@@H](Cc2cccc(c2)CNC(=O)CO4)C(=O)N3)cc1` [water-free Caprate 3], in series [1], the increase in weight is listed as approximately 9.4%. The “crystallinity by XRPD after adsorption/desorption” value in series [2] was “retains crystallinity”.

With `COc1ccc(C[C@@H]2NC(=O)[C@H]([C@@H](C)O)NC(=O)[C@@H]3[C@@H]4CCN3C(=O)[C@@H]3Cc5cn(c6ccc(F)cc56)CCCCCCN(Cc5ccc(cc5)CCNC(=O)[C@]5(C)CCCN5C2=O)C(=O)CCC(=O)N[C@@H](C)C(=O)N[C@H](CNC(=O)CCCCC[N+](C)(C)C)C(=O)N[C@@H](Cc2cccc(c2)CNC(=O)CO4)C(=O)N3)cc1` [Caprate 5], the “hysteresis during the desorption steps” value in series [1] is reported as “Slight hysteresis is observed”. Besides, the “crystallinity by XRPD after adsorption/desorption” value in series [2] is recorded as “retains some crystallinity; also recorded: loses crystallinity; also recorded: decrease in crystallinity”.

Take `COc1ccc(C[C@@H]2NC(=O)[C@H]([C@@H](C)O)NC(=O)[C@@H]3[C@@H]4CCN3C(=O)[C@@H]3Cc5cn(c6ccc(F)cc56)CCCCCCN(Cc5ccc(cc5)CCNC(=O)[C@]5(C)CCCN5C2=O)C(=O)CCC(=O)N[C@@H](C)C(=O)N[C@H](CNC(=O)CCCCC[N+](C)(C)C)C(=O)N[C@@H](Cc2cccc(c2)CNC(=O)CO4)C(=O)N3)cc1` [Caprate 3]: in series [1], the increase in weight is approximately 4.9%, the “relative humidity by which H2O is readily absorbed” value is listed as 25-35 % RH and the “relative humidity until which H2O is not lost” value was 15 % RH. The “crystallinity by XRPD after adsorption/desorption” value in series [2] is reported as “maintains its crystallinity; also recorded: retains crystallinity”.

With `COc1ccc(C[C@@H]2NC(=O)[C@H]([C@@H](C)O)NC(=O)[C@@H]3[C@@H]4CCN3C(=O)[C@@H]3Cc5cn(c6ccc(F)cc56)CCCCCCN(Cc5ccc(cc5)CCNC(=O)[C@]5(C)CCCN5C2=O)C(=O)CCC(=O)N[C@@H](C)C(=O)N[C@H](CNC(=O)CCCCC[N+](C)(C)C)C(=O)N[C@@H](Cc2cccc(c2)CNC(=O)CO4)C(=O)N3)cc1` [Acetate 4], the “hysteresis during the desorption step” value in series [1] (5-95% RH cycle (FIG. 31A)) is “Hysteresis is observed”. In addition, the increase in weight in series [1] (at 55% RH (FIG. 30A)) was approximately 9%; in series [1] (at 95% RH (FIG. 31A, 33A)), approximately 40%. The “crystallinity by XRPD after adsorption/desorption” value in series [2] (5-95-5% RH adsorption/desorption cycle (FIG. 31B, 33B)) was “loses crystallinity”; in series [2] (two adsorption/desorption cycles of 5-55% RH (FIG. 30B)) it was “retains minimal crystallinity; also recorded: decrease in crystallinity”.
